Activity calls are given as the source filed them. The calls are words filed in the database; no cut-off is given here.
What follows are compounds tested on Plasmodium falciparum (assay: Antimalarial activity against Plasmodium falciparum assessed as inhibition of parasite growth measured after 72 hrs by NLuc method).
Format: functional, organism-based

| Structure (SMILES) | IC50 |
| --- | --- |
| C/C(=C\Cn1cc(CSc2ccccc2C(=O)O)nn1)CCC[C@H](C)CCC[C@H](C)CCCC(C)C | 9.75 µM |

These compounds were tested on A549 (assay: Antiproliferative activity against human A549 cells assessed as inhibition of culture growth incubated for 48 hrs by SRB assay).
Format: functional

| GI50 | Structure (SMILES) |
| --- | --- |
| 5.4 µM | C/C(=C\Cn1cc(CSc2ccccc2C(=O)O)nn1)CCC[C@H](C)CCC[C@H](C)CCCC(C)C |
| 9.2 µM | CCCCCCCCCCCCCCCCn1cc(CSc2ccccc2C(=O)O)nn1 |
| 38 µM | CC(C)=CCC/C(C)=C/CC/C(C)=C/CC/C(C)=C/CSc1ccccc1C(=O)O |
| 34 µM | CC(C)=CCC/C(C)=C/CC/C(C)=C/CSc1ccccc1C(=O)O [SALIRASIB] |
| 14 µM | C/C(=C\CSc1ccccc1C(=O)O)CCCC(C)CCCC(C)CCCC(C)C (centres undefined) |
| 40 µM | CC(C)=CCC/C(C)=C/CC/C(C)=C/Cn1cc(CSc2ccccc2C(=O)O)nn1 |
| 61 µM | CCCCCCCCn1cc(CSc2ccccc2C(=O)O)nn1 |
| 1.5 µM | COc1cc([C@@H]2c3cc4c(cc3[C@@H](O[C@@H]3O[C@@H]5CO[C@@H](C)O[C@H]5[C@H](O)[C@H]3O)[C@H]3COC(=O)[C@H]23)OCO4)cc(OC)c1O [ETOPOSIDE] |

What follows are compounds tested on HeLa (assay: Antiproliferative activity against human HeLa cells assessed as inhibition of culture growth incubated for 48 hrs by SRB assay).
Format: functional

| Structure (SMILES) | GI50 |
| --- | --- |
| CC[C@@]1(O)C(=O)OCc2c1cc1n(c2=O)Cc2cc3ccccc3nc2-1 [CAMPTOTHECIN] | 0.6 µM |
| CCCCCCCCCCCCCCCCn1cc(CSc2ccccc2C(=O)O)nn1 | 6.9 µM |

Now from value to compound:

| GI50 | Structure (SMILES) |
| --- | --- |
| 4.3 µM | C/C(=C\Cn1cc(CSc2ccccc2C(=O)O)nn1)CCC[C@H](C)CCC[C@H](C)CCCC(C)C |
| 29 µM | CC(C)=CCC/C(C)=C/CC/C(C)=C/CC/C(C)=C/CSc1ccccc1C(=O)O |
| 34 µM | CC(C)=CCC/C(C)=C/CC/C(C)=C/CSc1ccccc1C(=O)O [SALIRASIB] |
| 12 µM | C/C(=C\CSc1ccccc1C(=O)O)CCCC(C)CCCC(C)CCCC(C)C (centres undefined) |
| 33 µM | CC(C)=CCC/C(C)=C/CC/C(C)=C/Cn1cc(CSc2ccccc2C(=O)O)nn1 |
| 39 µM | CCCCCCCCn1cc(CSc2ccccc2C(=O)O)nn1 |
| 3.3 µM | COc1cc([C@@H]2c3cc4c(cc3[C@@H](O[C@@H]3O[C@@H]5CO[C@@H](C)O[C@H]5[C@H](O)[C@H]3O)[C@H]3COC(=O)[C@H]23)OCO4)cc(OC)c1O [ETOPOSIDE] |

These compounds were tested on SW1573 (assay: Antiproliferative activity against human SW1573 cells assessed as inhibition of culture growth incubated for 48 hrs by SRB assay).
Format: functional

| Structure (SMILES) | GI50 |
| --- | --- |
| CC[C@@]1(O)C(=O)OCc2c1cc1n(c2=O)Cc2cc3ccccc3nc2-1 [CAMPTOTHECIN] | 0.3 µM |
| CCCCCCCCCCCCCCCCn1cc(CSc2ccccc2C(=O)O)nn1 | 9.3 µM |

The next lines start with the values.

| GI50 | Structure (SMILES) |
| --- | --- |
| 5.8 µM | C/C(=C\Cn1cc(CSc2ccccc2C(=O)O)nn1)CCC[C@H](C)CCC[C@H](C)CCCC(C)C |
| 37 µM | CC(C)=CCC/C(C)=C/CC/C(C)=C/CC/C(C)=C/CSc1ccccc1C(=O)O |
| 41 µM | CC(C)=CCC/C(C)=C/CC/C(C)=C/CSc1ccccc1C(=O)O [SALIRASIB] |
| 15 µM | C/C(=C\CSc1ccccc1C(=O)O)CCCC(C)CCCC(C)CCCC(C)C (centres undefined) |
| 40 µM | CC(C)=CCC/C(C)=C/CC/C(C)=C/Cn1cc(CSc2ccccc2C(=O)O)nn1 |
| 47 µM | CCCCCCCCn1cc(CSc2ccccc2C(=O)O)nn1 |
| 14 µM | COc1cc([C@@H]2c3cc4c(cc3[C@@H](O[C@@H]3O[C@@H]5CO[C@@H](C)O[C@H]5[C@H](O)[C@H]3O)[C@H]3COC(=O)[C@H]23)OCO4)cc(OC)c1O [ETOPOSIDE] |

These compounds were tested on T47D (assay: Antiproliferative activity against human T47D cells assessed as inhibition of culture growth incubated for 48 hrs by SRB assay).
Format: functional

| Structure (SMILES) | GI50 |
| --- | --- |
| CC[C@@]1(O)C(=O)OCc2c1cc1n(c2=O)Cc2cc3ccccc3nc2-1 [CAMPTOTHECIN] | 2 µM |
| CCCCCCCCCCCCCCCCn1cc(CSc2ccccc2C(=O)O)nn1 | 20 µM |

Further lines, results first:

| GI50 | Structure (SMILES) |
| --- | --- |
| 9.6 µM | C/C(=C\Cn1cc(CSc2ccccc2C(=O)O)nn1)CCC[C@H](C)CCC[C@H](C)CCCC(C)C |
| 41 µM | CC(C)=CCC/C(C)=C/CC/C(C)=C/CC/C(C)=C/CSc1ccccc1C(=O)O |
| 42 µM | CC(C)=CCC/C(C)=C/CC/C(C)=C/CSc1ccccc1C(=O)O [SALIRASIB] |
| 18 µM | C/C(=C\CSc1ccccc1C(=O)O)CCCC(C)CCCC(C)CCCC(C)C (centres undefined) |
| 52 µM | CC(C)=CCC/C(C)=C/CC/C(C)=C/Cn1cc(CSc2ccccc2C(=O)O)nn1 |
| 93 µM | CCCCCCCCn1cc(CSc2ccccc2C(=O)O)nn1 |
| 22 µM | COc1cc([C@@H]2c3cc4c(cc3[C@@H](O[C@@H]3O[C@@H]5CO[C@@H](C)O[C@H]5[C@H](O)[C@H]3O)[C@H]3COC(=O)[C@H]23)OCO4)cc(OC)c1O [ETOPOSIDE] |

The compounds below were run on HBL-100 (assay: Antiproliferative activity against human HBL-100 cells assessed as inhibition of culture growth incubated for 48 hrs by SRB assay).
Format: functional

| Structure (SMILES) | GI50 |
| --- | --- |
| C/C(=C\Cn1cc(CSc2ccccc2C(=O)O)nn1)CCC[C@H](C)CCC[C@H](C)CCCC(C)C | 10 µM |
| CC[C@@]1(O)C(=O)OCc2c1cc1n(c2=O)Cc2cc3ccccc3nc2-1 [CAMPTOTHECIN] | 0.2 µM |
| CCCCCCCCCCCCCCCCn1cc(CSc2ccccc2C(=O)O)nn1 | 14 µM |
| CC(C)=CCC/C(C)=C/CC/C(C)=C/CC/C(C)=C/CSc1ccccc1C(=O)O | 23 µM |
| CC(C)=CCC/C(C)=C/CC/C(C)=C/CSc1ccccc1C(=O)O [SALIRASIB] | 22 µM |
| C/C(=C\CSc1ccccc1C(=O)O)CCCC(C)CCCC(C)CCCC(C)C (centres undefined) | 14 µM |
| CC(C)=CCC/C(C)=C/CC/C(C)=C/Cn1cc(CSc2ccccc2C(=O)O)nn1 | 33 µM |
| CCCCCCCCn1cc(CSc2ccccc2C(=O)O)nn1 | 40 µM |
| COc1cc([C@@H]2c3cc4c(cc3[C@@H](O[C@@H]3O[C@@H]5CO[C@@H](C)O[C@H]5[C@H](O)[C@H]3O)[C@H]3COC(=O)[C@H]23)OCO4)cc(OC)c1O [ETOPOSIDE] | 1.4 µM |

The compounds below were run on NCI-H1299 (assay: Antiproliferative activity against human H1299 cells assessed as inhibition of culture growth incubated for 48 hrs by SRB assay).
Format: functional

| GI50 | Structure (SMILES) |
| --- | --- |
| 59 µM | C/C(=C\Cn1cc(CSc2ccccc2C(=O)O)nn1)CCC[C@H](C)CCC[C@H](C)CCCC(C)C |
| 27 µM | CCCCCCCCCCCCCCCCn1cc(CSc2ccccc2C(=O)O)nn1 |
| 85 µM | CC(C)=CCC/C(C)=C/CC/C(C)=C/CSc1ccccc1C(=O)O [SALIRASIB] |
| > 100 µM | C/C(=C\CSc1ccccc1C(=O)O)CCCC(C)CCCC(C)CCCC(C)C (centres undefined) |
| 102 µM | CC(C)=CCC/C(C)=C/CC/C(C)=C/Cn1cc(CSc2ccccc2C(=O)O)nn1 |
| > 100 µM | CCCCCCCCn1cc(CSc2ccccc2C(=O)O)nn1 |

What follows are compounds tested on NCI-H1299 (assay: Antimigratory activity against human H1299 cells assessed as reduction in cell migration at 50 uM incubated for 24 hrs by wound healing assay).
Format: functional, cell-based

| Structure (SMILES) | Activity |
| --- | --- |
| CCCCCCCCSc1ccccc1C(=O)O | Active |
| CC(C)=CCC/C(C)=C/Cn1cc(CSc2ccccc2C(=O)O)nn1 | inactive |
| CC(C)=CCC/C(C)=C/CSc1ccccc1C(=O)O | Active |
| CCCCCCCCn1cc(CSc2ccccc2C(=O)O)nn1 | inactive |
| CCCCCCCCCCSc1ccccc1C(=O)O | Active |

These compounds were tested on NCI-H1299 (assay: Anti-invasive activity in human H1299 cells assessed as reduction in cell invasion at 50 uM incubated for 24 hrs by transwell migration assay).
Format: functional, cell-based

| Structure (SMILES) | Activity |
| --- | --- |
| CCCCCCCCSc1ccccc1C(=O)O | Active |
| CC(C)=CCC/C(C)=C/CSc1ccccc1C(=O)O | Active |
| CCCCCCCCCCSc1ccccc1C(=O)O | inactive |

Reference: ChEMBL document CHEMBL5325490, “Lipophilic modification of salirasib modulates the antiproliferative and antimigratory activity” (Bioorg Med Chem, 2023)
